The text below walks through data of PMC8478151 (European journal of pharmacology, 2021).

SMILES strings stand for the structures. Counter-ions that a name gives are not always drawn.

The assay has as its target α7 nicotinic acetylcholine receptor (Homo sapiens, UniProt P36544). In kind it is cell-based.

In general, EC50 refers to the concentration at which the effect is half-maximal. The low end stands for greater potency, the high end for weaker potency.

α7 nicotinic acetylcholine receptor, sequence (P36544 23-502): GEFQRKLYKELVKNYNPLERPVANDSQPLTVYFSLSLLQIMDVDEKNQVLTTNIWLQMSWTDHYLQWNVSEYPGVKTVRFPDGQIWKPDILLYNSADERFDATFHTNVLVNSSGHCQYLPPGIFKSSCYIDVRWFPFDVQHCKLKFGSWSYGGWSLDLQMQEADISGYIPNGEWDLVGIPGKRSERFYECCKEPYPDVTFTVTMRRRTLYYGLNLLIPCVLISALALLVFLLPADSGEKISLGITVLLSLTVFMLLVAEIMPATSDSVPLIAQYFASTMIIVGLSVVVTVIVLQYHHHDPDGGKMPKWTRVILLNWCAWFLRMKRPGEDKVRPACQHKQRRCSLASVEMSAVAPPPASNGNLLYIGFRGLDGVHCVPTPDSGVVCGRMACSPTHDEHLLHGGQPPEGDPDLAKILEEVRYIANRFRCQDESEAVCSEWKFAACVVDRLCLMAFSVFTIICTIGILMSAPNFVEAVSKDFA

As for `O=C(c1ccc(-c2cccc(C(F)(F)F)c2)o1)N1CCN2CCC1CC2` [NS6740, 1,4-diazabicyclo[3.2.2]nonan-4-yl(5-(3-(trifluoromethyl)-phenyl)-furan-2-yl)methanone hydrochloride], a half-maximal effect (EC50) was put at 420 nM.
